This note sets out measurements from patent US20220402916A1, “SMALL MOLECULE INHIBITORS OF KRAS G12C MUTANT” (Merck Sharp & Dohme Corp., priority 2019, published 2022).

A word on the IC50: it is the point on the concentration scale where inhibition reaches its midpoint.

In one assay the test system is NCI-H358 cells. Put plainly: Cellular phospho-ERK assay. The following applies: NCI-H358 cells, 2 hour incubation, ratio of p-Erk vs total Erk, read-out: IC50. The class given is cell-based. The method, then:
NCI-H358 cells (ATCC® CRL-5807™) were cultured in T150 flask in growth medium (RPMI medium 1640-GlutaMAX™-1 (ThermoFisher Scientific 61870) containing 10% fetal bovine serum (ThermoFisher Scientific 10091148)). The cells were harvested in growth medium after TrypLE (ThermoFisher scientific 12604021) digestion and were seeded in 384-well collagen coated cell culture plate (Corning 356702) at a density of 15,000 cells/well, and incubated at 37° C., 5% CO2 overnight. The compound dose-response titrations were prepared and appropriate amounts of compounds were dispensed in 384-well intermediate plate using Echo 550 liquid handler. RPMI medium 1640-GlutaMAX™-I were added to the intermediate plate and transferred to 384-well cell culture plate, which was incubated at 37° C., 5% CO2 for 2 hours. After removal of medium from the plate, cells were lysed in lysis buffer from Alpha SureFire® Ultra™ Multiplex p-Erk and total Erk assay kit (PerkinElmer MPSU-PTERK) containing Halt™ Protease and Phosphotase inhibitor cocktail (ThermoFisher Scientific 78446) at room temperature with constant shaking at 300 rpm for 30 minutes. The cell lysates were then transferred to OptiPlate-384 plate (PerkinElmer 6005620) and the phosphorylation of Erk and total Erk levels were detected by Alpha SureFire Ultra Multiplex p-Erk kit (PerkinElmer MPSU-PTERK) following the manufacturer's protocol. Assay plates were read on an EnVision Multimode Plate Reader (PerkinElmer) and the ratio of p-Erk vs total Erk in each well was used as the final readout. Dose response curves were analyzed using a 4-parameter logistic model to calculate IC50 values using spotfire software.

Assay [1] addresses T1, Biotinylated KRAS G12C protein (Homo sapiens, UniProt P01116, C118S/C51S/C80L/G12C).
T1 construct: 183 amino acids; biotin on K10
The assay can be described thus: SOS-catalyzed nucleotide exchange assay. It counts as biochemical. The following applies: apparent potency; preincubation time of 60 minutes prior to addition of SOS.

Molecules are shown by their SMILES. Where two headings read alike, the source gives them in different places.

T1 sequence (P01116 with tags, fused parts or gaps isoform P01116-2 G12C/C51S/C80L/C118S): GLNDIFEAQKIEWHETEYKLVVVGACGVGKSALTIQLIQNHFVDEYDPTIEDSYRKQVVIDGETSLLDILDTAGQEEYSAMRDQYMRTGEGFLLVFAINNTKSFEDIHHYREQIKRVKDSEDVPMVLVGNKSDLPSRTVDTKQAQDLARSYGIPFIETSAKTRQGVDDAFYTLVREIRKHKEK

With `C=CC(=O)N1CCN(c2cc(C(=O)NC[C@H](C)N)nc3c2CCN(c2cccc4cccc(C)c24)C3)C[C@@H]1CC#N` [Compound 86, 4-((S)-4-acryloyl-3-(cyanomethyl)piperazin-1-yl)-N—((S)-2-aminopropyl)-7-(8-methylnaphthalen-1-yl)-5,6,7,8-tetrahydro-1,7-naphthyridine-2-carboxamide], the IC50 was 1650 nM with NCI-H358 cells (Homo sapiens, NCI-H358, 2 h) and 11 nM in assay [1].
The matching figures for `C=CC(=O)N1CCN(c2cc(C(=O)N[C@H](C)CN(C)C)nc3c2CCN(c2cccc4cccc(C)c24)C3)C[C@@H]1CC#N` [Compound 65, 4-((S)-4-acryloyl-3-(cyanomethyl)piperazin-1-yl)-N-((R)-1-(dimethylamino)propan-2-yl)-7-(8-methylnaphthalen-1-yl)-5,6,7,8-tetrahydro-1,7-naphthyridine-2-carboxamide]: 16 nM and 2.1 nM.
The corresponding values for `C=C(F)C(=O)N1CCN(c2cc(C(=O)N[C@H](C)CN(C)C(C)C)nc3c2CCN(c2cccc4cccc(C)c24)C3)C[C@@H]1CC#N` [Compound 79, 4-((S)-3-(cyanomethyl)-4-(2-fluoroacryloyl)piperazin-1-yl)-N-((R)-1-(isopropyl(methyl)amino)propan-2-yl)-7-(8-methylnaphthalen-1-yl)-5,6,7,8-tetrahydro-1,7-naphthyridine-2-carboxamide] are 1280 nM and 12 nM.
The matching figures for `C=CC(=O)N1CCN(c2cc(C(=O)NCCN(C)C)nc3c2CCN(c2cccc4cccc(C)c24)C3)C[C@@H]1CC#N` [Compound 64, (S)-4-(4-acryloyl-3-(cyanomethyl)piperazin-1-yl)-N-(2-(dimethylamino)ethyl)-7-(8-methylnaphthalen-1-yl)-5,6,7,8-tetrahydro-1,7-naphthyridine-2-carboxamide]: 106 nM and 2.7 nM.
On to `C=CC(=O)N1CCN(c2cc(C(=O)N[C@@H](C)CN)nc3c2CCN(c2cccc4ccccc24)C3)C[C@@H]1CC#N` [Compound 62, 4-((S)-4-acryloyl-3-(cyanomethyl)piperazin-1-yl)-N-((S)-1-aminopropan-2-yl)-7-(naphthalen-1-yl)-5,6,7,8-tetrahydro-1,7-naphthyridine-2-carboxamide], for which the IC50 turned out to be 2410 nM in the assay with NCI-H358 cells (Homo sapiens, NCI-H358, 2 h) and 51 nM in assay [1].
As to `C=CC(=O)N1CCN(c2cc(C(=O)NC(C)CN3CCC(C)(O)C3)nc3c2CCN(c2cccc4cccc(C)c24)C3)C[C@@H]1CC#N` (single isomer, unassigned) [Compound 76, 4-((S)-4-acryloyl-3-(cyanomethyl)piperazin-1-yl)-N-((S or R)-1-((S or R)-3-hydroxy-3-methylpyrrolidin-1-yl)propan-2-yl)-7-(8-methylnaphthalen-1-yl)-5,6,7,8-tetrahydro-1,7-naphthyridine-2-carboxamide], the IC50 in the assay on NCI-H358 cells turned out to be 207 nM; in assay [1], 6.2 nM.
Consider `C=CC(=O)N1CCN(c2cc(C(=O)N[C@@H]3CCC[C@H]3N(C)C)nc3c2CCN(c2cccc4cccc(C)c24)C3)C[C@@H]1CC#N` (mixture of isomers) [Compound 66, 4-((S)-4-acryloyl-3-(cyanomethyl)piperazin-1-yl)-N-((1R,2R)-2-(dimethylamino)cyclopentyl)-7-(8-methylnaphthalen-1-yl)-5,6,7,8-tetrahydro-1,7-naphthyridine-2-carboxamide, as a mixture with 4-((S)-4-acryloyl-3-(cyanomethyl)piperazin-1-yl)-N-((1S,2S)-2-(dimethylamino)cyclopentyl)-7-(8-methylnaphthalen-1-yl)-5,6,7,8-tetrahydro-1,7-naphthyridine-2-carboxamide], for which the IC50 worked out at 41 nM with NCI-H358 cells (Homo sapiens, NCI-H358, 2 h) and 1 nM in assay [1].
As to `C=CC(=O)N1CCN(c2cc(C(=O)NC[C@]3(F)CCCNC3)nc3c2CCN(c2cccc4cccc(C)c24)C3)C[C@@H]1CC#N` [Compound 107, 4-((S)-4-acryloyl-3-(cyanomethyl)piperazin-1-yl)-N-(((S)-3-fluoropiperidin-3-yl)methyl)-7-(8-methylnaphthalen-1-yl)-5,6,7,8-tetrahydro-1,7-naphthyridine-2-carboxamide], the concentration for half-maximal inhibition (IC50) in the assay with NCI-H358 cells (Homo sapiens, NCI-H358, 2 h) stood at 7350 nM; in assay [1], 54 nM.
Turning to `C=CC(=O)N1CCN(c2cc(C(=O)NC(C)CN3CCC(C)(O)C3)nc3c2CCN(c2cccc4cccc(C)c24)C3)C[C@@H]1CC#N` (single isomer, unassigned) [Compound 73, 4-((S)-4-acryloyl-3-(cyanomethyl)piperazin-1-yl)-N—((R or S)-1-((R or S)-3-hydroxy-3-methylpyrrolidin-1-yl)propan-2-yl)-7-(8-methylnaphthalen-1-yl)-5,6,7,8-tetrahydro-1,7-naphthyridine-2-carboxamide], the IC50 in the assay on NCI-H358 cells came out at 257 nM; in assay [1], 9.7 nM.
With `C=C(F)C(=O)N1CCN(c2cc(C(=O)N[C@H](C)CN(C)C)nc3c2CCN(c2cccc4cccc(C)c24)C3)C[C@@H]1CC#N` [Compound 78, 4-((S)-3-(cyanomethyl)-4-(2-fluoroacryloyl)piperazin-1-yl)-N-((R)-1-(dimethylamino)propan-2-yl)-7-(8-methylnaphthalen-1-yl)-5,6,7,8-tetrahydro-1,7-naphthyridine-2-carboxamide], the concentration for half-maximal inhibition (IC50) in the assay with NCI-H358 cells (Homo sapiens, NCI-H358, 2 h) was found to be 1250 nM; in assay [1] it was 8.3 nM.
As for `C=CC(=O)N1CCN(c2cc(C(=O)NC(C)CN3CCC(C)(O)C3)nc3c2CCN(c2cccc4cccc(C)c24)C3)C[C@@H]1CC#N` (single isomer, unassigned) [Compound 74, 4-((S)-4-acryloyl-3-(cyanomethyl)piperazin-1-yl)-N-((S or R)-1-((R or S)-3-hydroxy-3-methylpyrrolidin-1-yl)propan-2-yl)-7-(8-methylnaphthalen-1-yl)-5,6,7,8-tetrahydro-1,7-naphthyridine-2-carboxamide], the half-inhibitory concentration (IC50) came to 45 nM in the assay with NCI-H358 cells and 5.4 nM in assay [1].
`C=CC(=O)N1CCN(c2cc(C(=O)NC3(CC#N)CNC3)nc3c2CCN(c2cccc4cccc(C)c24)C3)C[C@@H]1CC#N` [Compound 100, (S)-4-(4-acryloyl-3-(cyanomethyl)piperazin-1-yl)-N-(3-(cyanomethyl)azetidin-3-yl)-7-(8-methylnaphthalen-1-yl)-5,6,7,8-tetrahydro-1,7-naphthyridine-2-carboxamide]: the IC50 stood at 5880 nM with NCI-H358 cells (Homo sapiens, NCI-H358, 2 h) and 22 nM in assay [1].
Take `C=CC(=O)N1CCN(c2cc(C(=O)NC(C)CN3CCC(F)(F)C3)nc3c2CCN(c2cccc4cccc(C)c24)C3)C[C@@H]1CC#N` (single isomer, unassigned) [Compound 72, 4-((S)-4-acryloyl-3-(cyanomethyl)piperazin-1-yl)-N—((S or R)-1-(3,3-difluoropyrrolidin-1-yl)propan-2-yl)-7-(8-methylnaphthalen-1-yl)-5,6,7,8-tetrahydro-1,7-naphthyridine-2-carboxamide]: the IC50 in the assay with NCI-H358 cells was found to be 25400 nM; in assay [1], 529 nM.
In the case of `C=CC(=O)N1CCN(c2cc(C(=O)N[C@H]3CC[C@@H](NC)CC3)nc3c2CCN(c2cccc4cccc(C)c24)C3)C[C@@H]1CC#N` [Compound 96, 4-((S)-4-acryloyl-3-(cyanomethyl)piperazin-1-yl)-N-(cis-4-(methylamino)cyclohexyl)-7-(8-methylnaphthalen-1-yl)-5,6,7,8-tetrahydro-1,7-naphthyridine-2-carboxamide], the IC50 with NCI-H358 cells (Homo sapiens, NCI-H358, 2 h) worked out at 5470 nM; in assay [1] it was 56 nM.
